Bounds are passed on as bounds.

The test system of one data set is Helicobacter pylori. In words: Activity against Helicobacter pylori, agar dilution (method of Iwahi et al.), Columbia agar, 4 days growth. In kind it is cell-based. Particulars: 96 h, Columbia agar (Oxoid), growth period of 4 days, approximate values, read-out: Appr. MIC 50. From the text:
The compounds of the formula I were investigated with respect to their activity against Helicobacter pylori following the method described by Tomoyuki Iwahi et al. (Antimicrobial Agents and Chemotherapy, 1991, 490-496) using Columbia agar (Oxoid) and a growth period of 4 days.
(Agar dilution tests growth on a series of plates holding different concentrations.)

The compound `Cc1c(SCC2CCCN(C)C2)ccnc1CNc1cnc2ccccc2c1` (stereo not shown) [Compound 32, [3-Methyl-4-(1-methyl-piperidin-3-ylmethylsulfanyl)-pyridin-2-ylmethyl]-quinolin-3-yl-amine] showed a melting point of 106 to 108 °C. Moreover, the MIC50 in the data set with Helicobacter pylori is at most 0.1 µg/mL.
On to `Cc1c(SCCOCC(F)(F)F)ccnc1CNc1cnc2ccccc2c1.Cl` [Compound 36, (3-Methyl-4-{2-[2,2,2-trifluoro-ethoxy)-ethylsulfanyl}-pyridin-2-ylmethyl)-quinolin-3-yl-amine hydrochloride], for which the melting point was 212 to 215 °C (dec.). In addition, in the data set on Helicobacter pylori, the MIC50 is at most 0.1 µg/mL.

The term melting point denotes the temperature, or range, at which the solid turns liquid.

The record behind these values is patent US6479514B1, “Quinoline-aminomethyl-pyridyl derivatives with anti-helicobacter activity” (Altana Pharma AG, priority 1998, dated 2002).
